US20220184060A1, “PHARMACEUTICAL COMPOSITION COMPRISING SPHERICAL AGGLOMERATES OF TIMAPIPRANT” (Chiesi Farmaceutici S.p.A., priority 2018, published 2022)
Several values for one entry are separate records, joined by “and”; a condition that tells them apart may be missing. Equal values may be shown once.

Key:
Type in all cases: physicochemical
[1] = Flowability of the blend material (API with tablet excipients) before compression; conditions: blend material of API with the excipients of Table 3; for Flow properties of the blend (in words): suitability for direct compression
Method: The spherical agglomerates of timapiprant or the micronized timapiprant, together with the microcrystalline cellulose, the croscarmellose sodium, the poloxamer, the sodium lauryl sulphate and the colloidal silicon dioxide in the above amounts, are sieved in a sieve of 1.2 mm. The lactose monohydrate is then added, and the resulting mixture is blended in a free fall blender for at least 15 minutes. The magnesium stearate is added to the obtained mixture which is further blended in the free fall blender for additional 3 minutes.

[2] = Specific surface area (SSA) by BET nitrogen adsorption (TriStar, Micromeritics); conditions: degassing 2 hours at 40° C.
Method: The specific surface areas (SSA) of spherical agglomerates of timapiprant obtained according to Examples 3, 5,7 and the micronized timapiprant were measured was determined by BET nitrogen adsorption using the TriStar of Micromeritics apparatus according to following parameters: • Isotherm, Adsorbing/Desorbing Run: 0 to 1 p/p0 • Vials: ⅜ Inch, Degassing Pre-analysis: 2 hours at 40° C., Nitrogen as adsorbate • Preparation: Evacuation Rate 10 mmHg/s; Unrestricted evacuation from 5 mmHg • Vacuum setpoint: 10 mmHg, Evacuation time: 1 hour • Leak Test Duration: 120 s, Outgas Test Duration: 180 s • Measure p0 at intervals during the analysis, Enter the analysis bath temperature: […]77 kelvin • Equilibration Interval: 5 s; Minimum Equilibration Delay at p/p0≥0,995 per 600 s.

[3] = Primary particle size distribution by laser diffraction (Malvern Mastersizer 2000) after break up of spherical agglomerates; conditions: for PSD d (0.1), mean result / PSD d (0.5), mean result: mean of 10 acquisitions, primary particles after sonication in water; for PSD d (0.1) / PSD d (0.5): single acquisition (Measure 1-10), primary particles, agglomerates dispersed in water by 10 minutes sonication, 1500 rpm
Method: The primary particle size distribution results are produced by means of a Malvern 2000 laser diffraction equipment by the analysis of the primary particles in suspension.
The particle size distribution laser diffraction measures were performed using a Malvern Mastersizer 2000 equipped with a Hydro 2000S cell for the wet suspension of the Timapiprant primary particles. The spherical agglomerates obtained according to the Examples 3 and 5, were dispersed in water by means of 10 minutes sonication and then added to the cell, previously filled with water, until an obscuration within 5-10% was obtained.

Structure (SMILES) | Flowability (s/100 g) [1] | Flow properties of the blend (in words) [1] | SSA (specific surface area) [2] | SSA (specific surface area) ([2]; listed as micronized timapiprant) | PSD d (0.1), mean result [3] | PSD d (0.5), mean result [3] | PSD d (0.1) [3] | PSD d (0.5) [3] | Flowability (s/100 g) ([1]; listed as Spherical agglomerates of timapirpant)
Cc1c(Cc2ccc3ccccc3n2)c2cc(F)ccc2n1CC(=O)O [Micronized Timapiprant, reference compound] | ∞ | very poor flow properties | 8.0 m^2/g and 7.8 m^2/g | less than 8.5 m^2/g | – | – | – | – | –
Cc1c(Cc2ccc3ccccc3n2)c2cc(F)ccc2n1CC(=O)O [Spherical agglomerates of timapiprant of Example 3] [5-fluoro-2-methyl-3-(quinolin-2-ylmethyl)-1H-indol-1-yl)acetic acid] | – | – | 13.1 m^2/g | – | 0.28 μm | 0.56 μm | 0.28 μm and 0.275 μm and 0.278 μm and 0.279 μm | 0.56 μm and 0.555 μm and 0.561 μm and 0.559 μm | –
Cc1c(Cc2ccc3ccccc3n2)c2cc(F)ccc2n1CC(=O)O [Spherical agglomerates of timapiprant of Example 5] [5-fluoro-2-methyl-3-(quinolin-2-ylmethyl)-1H-indol-1-yl)acetic acid] | – | good flowability | 10.1 m^2/g | – | 0.31 μm | 0.64 μm | 0.314 μm and 0.315 μm | 0.64 μm and 0.642 μm and 0.638 μm and 0.641 μm and 0.639 μm | 4 sec s/100 g
Cc1c(Cc2ccc3ccccc3n2)c2cc(F)ccc2n1CC(=O)O [Spherical agglomerates of timapiprant of Example 7] [5-fluoro-2-methyl-3-(quinolin-2-ylmethyl)-1H-indol-1-yl)acetic acid] | – | – | 15.5 m^2/g | – | – | – | – | – | –
